# System: TNB/ethanol colitis
# Experiment: Intracolonic administration in rat model of chronic colitis (TNB/ethanol): macroscopic colonic damage
# Assay type: in vivo, Sprague-Dawley rats
# Conditions: for macroscopic damage score: after four weeks of treatment, daily enema 50 mg/kg (Formula I (1-1): zileuton equivalent), p=0.026
# Procedure: Female virgin Sprague-Dawley rats weighing 200-250 g were used in this study. The animals were maintained in a restricted access room with controlled temperature (23° C.) and light/dark cycle (16 h:8 h). The rats were housed in individual isolated rack mounted wire cages.
# TNB/ethanol colitis was induced in 90 rats. Animals were thereafter randomised into four therapeutic groups to receive daily, from day 1 (24 hours after induction of colitis):
# Group A (n=30)−0.25 ml of vehicle solution enema (1-5% carboxymethylcellulose in saline serum) (placebo group).
# Group B (n=30)−0.25 ml of the vehicle solution enema added with 50 mg/kg of body weight of 5-ASA.
# Group C (n=30)−0-25 ml of the vehicle solution enema added with 50 mg/kg of body weight of zileuton.
# Group D (n=30)−0-25 ml of the vehicle solution enema added with 50 mg/kg of body weight of Formula I (1-1) equivalent of zileuton.
# In addition, sham colitis was induced, by intrarectal administration of 0-25 ml of 0.9°/0 saline, in 10 rats (control group). At day 1 and 3, and at weeks 1, 2, and 4, 10 rats from groups A, B, C and D were randomly selected for the assessment of eicosanoid release in the lumen of the colon by intracolonic dialysis. Rats were anaesthetised with 100 mg of intraperitoneal thiopental and intracolonic dialysis was performed using hydrated Visking seamless cellulose tubing (8/32, 6-3 mm diameter, 7 cm long; Medicell International, London) attached by a 10 cm polyurethane cannula to an external syringe. After inserting the entire cannula into the distal colon, the dialysis bag was filled with 1 ml of dialysis solution, consisting of 0.3°/o bovine serum albumin in a solution of 120 mmol/1 NaCl and 30 mmol/1 KHCO3 adjusted to pH 7.90. One hour later, the fluid was withdrawn and immediately stored at −30 C. The volume of the dialysate recovered at the end of the one hour period was higher than 90%. In the control group (n=10), an intracolonic dialysis was performed in the same way 24 hours after the sham colitis induction. The day after the dialysis was performed at weeks 1, 2, and 4, the same animals were given a distal colectomy under total anaesthesia with 100 mg of intraperitoneal thiopental, to assess colonic inflammation macroscopically and histologically. The excised colon was opened longitudinally, rinsed with normal saline, pinned out on a wax block, and assigned a code number. Mucosal damage was assessed macroscopically as described later. Afterwards, three tissue specimens (2×10 mm) were obtained from the colon. When no severely visible inflammation was present, the specimens were taken from the regions 1 cm, 3 cm, and 8 cm proximal to the anus. When visible lesions were present, the specimens were taken from the affected regions. Tissue samples were fixed in formaldehyde and routinely processed. […]
Structure (SMILES),macroscopic damage score,"all parameters measured by the score, mainly the development of strictures (at four weeks, compared with 5-ASA, zileuton and placebo)"
CC/C=C\C/C=C\C/C=C\C/C=C\C/C=C\CCCC(=O)NC(=O)N(O)C(C)c1cc2ccccc2s1 (stereo not shown) [Formula I (1-1)],4.36 (0.6),improved
Nc1ccc(O)c(C(=O)O)c1 [5-ASA],7.3 (0.7),
CC(c1cc2ccccc2s1)N(O)C(N)=O (stereo not shown) [zileuton],5.6 (0.7),

# Source: patent US9394288B2, “Compositions and methods for the treatment of asthma and allergy” (CELLIX BIO PRIVATE LIMITED, priority 2012, dated 2016)
